Experimental findings from PubChem BioAssay AID330 (DTP/NCI, 2004) are described below.

Several values for one entry are separate records, joined by “and”; a condition that tells them apart may be missing. Identical values can stand only once. Inconclusive results and toxic doses are left out. Square brackets hold non-standard residues; d marks the D form. Peptide text beside a SMILES is read from it. * marks the point of attachment. ξ: configuration not given here. Cbz = O=C(OCc1ccccc1)*; OBn = c1ccc(CO*)cc1; Bn = c1ccc(C*)cc1; ξC = NC(CS)C(=O)O

For this assay, the system named is P388 leukemia ip, CD2F1 mice, survival T/C. Kind of assay: NCI In Vivo Anticancer Drug Screen. Data for tumor model P388 Leukemia (intraperitoneal) in CD2F1 (CDF1) mice. Conditions: endpoint: median survival time, higher = longer survival. The essentials: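 Mice carrying the transplanted tumor received test compound or vehicle. Survival was recorded in each group, and the value is the treated-group measurement divided by that of the vehicle-treated control group.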

Where [1] appears, read: dose: 12.5 mg/kg/injection, schedule: Q01DX009 (ip), vehicle: saline with Tween-80.
Setting [2] is: dose: 25.0 mg/kg/injection, schedule: Q01DX009 (ip), vehicle: saline with Tween-80.
The mark [3] stands for this setting: dose: 50.0 mg/kg/injection, schedule: Q01DX009 (ip), vehicle: saline with Tween-80.
Setting [4] is: dose: 100.0 mg/kg/injection, schedule: Q01DX009 (ip), vehicle: saline with Tween-80.
Setting [5] is: dose: 50.0 mg/kg/injection, schedule: Q01DX005 (ip), vehicle: Klucel (hydroxypropylcellulose) (HPC).
[6] abbreviates: dose: 100.0 mg/kg/injection, schedule: Q01DX005 (ip), vehicle: Klucel (hydroxypropylcellulose) (HPC).
[7] abbreviates: dose: 200.0 mg/kg/injection, schedule: Q01DX005 (ip), vehicle: Klucel (hydroxypropylcellulose) (HPC).
Where [8] appears, read: dose: 200.0 mg/kg/injection, schedule: Q01DX009 (ip), vehicle: saline with Tween-80.
Setting [9] is: dose: 25.0 mg/kg/injection, schedule: Q01DX005 (ip), vehicle: Klucel (hydroxypropylcellulose) (HPC).

For the molecule `COc1cc(Br)c(C(=O)N2CCc3cc([N+](=O)[O-])ccc32)cc1OC`, the T/C is 101 % of control (dose: 25.0 mg/kg/injection, schedule: Q01DX009 (ip), vehicle: other); 93 % of control (dose: 50.0 mg/kg/injection, schedule: Q01DX009 (ip), vehicle: other); 89 % of control (dose: 100.0 mg/kg/injection, schedule: Q01DX009 (ip), vehicle: other); 87 % of control (dose: 200.0 mg/kg/injection, schedule: Q01DX009 (ip), vehicle: other).
Consider `C[N+](C)(C)CC1CS1` (stereo unspecified), for which the T/C reads like this: (dose: 4.5 mg/kg/injection, schedule: Q01DX009 (ip), vehicle: saline) 104 % of control; (dose: 9.0 mg/kg/injection, schedule: Q01DX009 (ip), vehicle: saline) 95 % of control; (dose: 18.0 mg/kg/injection, schedule: Q01DX009 (ip), vehicle: saline) 100 % of control.
On to `COc1ccc(C2(Cc3ccccc3C#N)OCCO2)cc1OC`, for which the T/C runs as follows: (dose: 100.0 mg/kg/injection, schedule: Q04DX002 (ip), vehicle: Klucel (hydroxypropylcellulose) (HPC)) 95 % of control; (dose: 200.0 mg/kg/injection, schedule: Q04DX002 (ip), vehicle: Klucel (hydroxypropylcellulose) (HPC)) 101 % of control; (dose: 400.0 mg/kg/injection, schedule: Q04DX002 (ip), vehicle: Klucel (hydroxypropylcellulose) (HPC)) 99 % of control.
Consider `COc1cc(CC(C)N)ccc1O` (stereo unspecified), for which the T/C by setting is: under setting [1], 100 % of control; under setting [2], 99 % of control; under setting [3], 104 % of control; under setting [4], 95 % of control.
Regarding `CCOC(=O)/C(N=Nc1ccccc1Cl)=C(\C)O`, the T/C is 101 % of control under setting [5], 101 % of control under setting [6] and 101 % of control under setting [7].
With `Cc1ccc(N2C(=O)CC3(CCCC3)C2=O)cc1C`, the T/C is 100 % of control (dose: 100.0 mg/kg/injection, schedule: Q04DX003 (ip), vehicle: Klucel (hydroxypropylcellulose) (HPC)); 98 % of control (dose: 200.0 mg/kg/injection, schedule: Q04DX003 (ip), vehicle: Klucel (hydroxypropylcellulose) (HPC)); 98 % of control (dose: 400.0 mg/kg/injection, schedule: Q04DX003 (ip), vehicle: Klucel (hydroxypropylcellulose) (HPC)).
`CS(=O)(=O)OC1C(COC(=O)c2ccccc2)OC(n2ccc(=O)[nH]c2=O)C1O` (stereo unspecified): the T/C was 100 % of control (dose: 50.0 mg/kg/injection, schedule: Q01DX005 (ip), vehicle: saline); 101 % of control (dose: 100.0 mg/kg/injection, schedule: Q01DX005 (ip), vehicle: saline); 101 % of control (dose: 200.0 mg/kg/injection, schedule: Q01DX005 (ip), vehicle: saline).
Consider `CN(C)C1=CC(=O)NC2CCCCC12` (stereo unspecified), for which the T/C reads like this: under setting [5], 95 % of control; under setting [6], 98 % of control; under setting [7], 105 % of control.
`COc1cccc2c1C(=O)c1c(O)c3c(c(O)c1C2=O)C[C@@](O)(C(C)=O)CC3OC1CC(NC(=O)C(C)N)C(O)C(C)O1` (stereo partly specified): the T/C was 108 % of control (dose: 6.25 mg/kg/injection, schedule: Q04DX003 (ip), vehicle: saline); 115 % of control (dose: 12.5 mg/kg/injection, schedule: Q04DX003 (ip), vehicle: saline); 150 % of control (dose: 50.0 mg/kg/injection, schedule: Q04DX003 (ip), vehicle: saline).
For `C/C=C/Cc1nnc(C)c2c(C)[nH]nc12`, the T/C is 100 % of control under setting [3], 96 % of control under setting [4] and 102 % of control under setting [8].
Consider `CC1(C)CC2C1(O)CCC1(C)C(O)C=CC21CO` (stereo unspecified), for which the T/C (dose: 6.0 mg/kg/injection, schedule: Q01DX005 (ip), vehicle: Klucel (hydroxypropylcellulose) (HPC)) is 98 % of control; the T/C (dose: 12.0 mg/kg/injection, schedule: Q01DX005 (ip), vehicle: Klucel (hydroxypropylcellulose) (HPC)) is 95 % of control; the T/C (dose: 24.0 mg/kg/injection, schedule: Q01DX005 (ip), vehicle: Klucel (hydroxypropylcellulose) (HPC)) was 100 % of control; the T/C under setting [9] is 93 % of control; the T/C (dose: 48.0 mg/kg/injection, schedule: Q01DX005 (ip), vehicle: Klucel (hydroxypropylcellulose) (HPC)) is 90 % of control; the T/C under setting [5] was 93 % of control. In addition, the T/C under setting [6] was 90 % of control.
For `[N-]=[N+]=C(S(=O)(=O)O)S(=O)(=O)O`, the T/C is 107 % of control (dose: 50.0 mg/kg/injection, schedule: Q01DX009 (ip), vehicle: saline); 112 % of control (dose: 100.0 mg/kg/injection, schedule: Q01DX009 (ip), vehicle: saline); 107 % of control (dose: 200.0 mg/kg/injection, schedule: Q01DX009 (ip), vehicle: saline); 107 % of control (dose: 400.0 mg/kg/injection, schedule: Q01DX009 (ip), vehicle: saline).
Turning to `O=NNc1ccccn1`, the T/C is 106 % of control (dose: 0.78 mg/kg/injection, schedule: Q01DX009 (ip), vehicle: saline); 100 % of control (dose: 1.5 mg/kg/injection, schedule: Q01DX009 (ip), vehicle: saline); 103 % of control (dose: 1.5 mg/kg/injection, schedule: Q01DX009 (ip), vehicle: water); 103 % of control and 106 % of control and 112 % of control (dose: 1.56 mg/kg/injection, schedule: Q01DX005 (ip), vehicle: water); 108 % of control (dose: 1.56 mg/kg/injection, schedule: Q01DX009 (ip), vehicle: saline + alcohol); 119 % of control (dose: 1.59 mg/kg/injection, schedule: Q01DX009 (ip), vehicle: water). The T/C by setting is: (dose: 3.0 mg/kg/injection, schedule: Q01DX009 (ip), vehicle: saline) 118 % of control; (dose: 3.0 mg/kg/injection, schedule: Q01DX009 (ip), vehicle: water) 121 % of control; (dose: 3.12 mg/kg/injection, schedule: Q01DX009 (ip), vehicle: saline + alcohol) 123 % of control; (dose: 12.0 mg/kg/injection, schedule: Q01DX009 (ip), vehicle: water) 151 % of control and 163 % of control; (dose: 25.0 mg/kg/injection, schedule: Q01DX009 (ip), vehicle: saline + alcohol) 175 % of control.
For `O=C(O)Cc1csc(=S)n1-c1ccccc1`, the T/C reads like this: (dose: 50.0 mg/kg/injection, schedule: Q01DX005 (ip), vehicle: saline with Tween-80) 97 % of control; (dose: 100.0 mg/kg/injection, schedule: Q01DX005 (ip), vehicle: saline with Tween-80) 102 % of control; (dose: 200.0 mg/kg/injection, schedule: Q01DX005 (ip), vehicle: saline with Tween-80) 90 % of control.
In the case of `O=C1C=CC(=Nc2ccc(N(CCCl)CCCl)cc2)C=C1`, the T/C is 89 % of control (dose: 50.0 mg/kg/injection, schedule: Q01DX009 (ip), vehicle: Klucel (hydroxypropylcellulose) (HPC)) and 89 % of control (dose: 100.0 mg/kg/injection, schedule: Q01DX009 (ip), vehicle: Klucel (hydroxypropylcellulose) (HPC)).
Regarding `O=C(NC1CCCCC1)C(=O)c1cc(Cl)c(Cl)c(Cl)c1Cl`, the T/C reads like this: under setting [3], 106 % of control; under setting [4], 114 % of control; under setting [8], 103 % of control.
As to `Cn1c(=O)c2c(ncn2C2C(=O)NNC2=O)n(C)c1=O`, the T/C is 100 % of control (dose: 100.0 mg/kg/injection, schedule: Q01DX001 (ip), vehicle: Klucel (hydroxypropylcellulose) (HPC)); 93 % of control (dose: 200.0 mg/kg/injection, schedule: Q01DX001 (ip), vehicle: Klucel (hydroxypropylcellulose) (HPC)); 94 % of control (dose: 400.0 mg/kg/injection, schedule: Q01DX001 (ip), vehicle: Klucel (hydroxypropylcellulose) (HPC)).
Turning to `Cc1cc(Cl)ccc1N=C(N)N`, the T/C reads like this: under setting [1], 100 % of control; under setting [2], 101 % of control; under setting [3], 99 % of control and 107 % of control.
Consider `O=C(CNC(=O)C(CSCc1ccccc1)NC(=O)OCc1ccccc1)NCC(=O)OCc1ccccc1` (stereo not drawn) (Cbz-[ξC](Bn)-Gly-Gly-OBn), for which the T/C was 102 % of control (dose: 12.5 mg/kg/injection, schedule: Q01DX005 (ip), vehicle: Klucel (hydroxypropylcellulose) (HPC)); 95 % of control under setting [9]; 102 % of control under setting [5].
